{
  "source": "paper PMC8241576",
  "about": "(Biophysical Journal, 2021)",
  "origin": "cited, not measured here",
  "conditions": "in water at 25°C",
  "data": [
    {"compound": "Cl.N=c1ccc2c(-c3ccccc3C(=O)O)c3ccc(N)cc3oc-2c1", "note": "[Rh110, Rhodamine 110]", "values": [
      {"measurement": "diffusion coefficient", "result": "4.4 × 10^−6 cm^2 s^−1"},
      {"measurement": "hydrodynamic radius of free dye", "result": "~0.56", "unit": "nm"}
    ]}
  ]
}
